Measured values published in patent publication US20250195553A1, “Use of Genipin-1-B-D-Gentiobioside in Preparation of Drug” (Guizhou Bailing Group Pharmaceutical Co., Ltd., priority 2023, published 2025).
Several values for one entry are separate records, joined by “and”; a condition that tells them apart may be missing. Equal values may be shown once. Marks after values point to notes of the source that are not given here.

Tests used:
[1] = test system: Human Respiratory Syncytial Virus (RSV); assay: RSV viral load in mouse lung tissue (RT-PCR), nebulization; assay type: in vivo
Description: […] Each group consisted of 10 mice, with an equal number of males and females. Except for the normal control group, all mice were lightly anesthetized with isoflurane and infected with respiratory syncytial virus (RSV) via intranasal administration, with each mouse receiving 35 μl of the virus. On the day of infection, the treatment groups began inhalation administration. Each group received nebulization for 25 minutes once daily for four consecutive days. The normal control group and the model control group received nebulized saline under the same conditions. On the fifth day, after weighing, the mice were sacrificed by cervical dislocation, and their lung tissues were dissected, weighed, and used to calculate the lung index and lung index inhibition rate. The lung tissues were also retained for virus load, pathological examination, and inflammatory factor detection. The results were statistically analyzed using the t-test for intergroup comparisons.
After dissecting the mice, the lung tissues were collected and stored in separate containers at −80° C. in a low-temperature freezer. The lung tissues were then removed from the −80° C. freezer and placed in a clean mortar. A small amount of liquid nitrogen was poured into the mortar, and the tissues were ground into powder using a pestle. The powder was collected in a 1.5 ml centrifuge tube, and 1 ml of TRIzol Reagent was immediately added. The tube was gently tapped at the bottom to mix the sample and ensure it was resuspended as soon as possible. The centrifuge tube was then placed horizontally at room temperature and incubated for 20 minutes. Next, it was centrifuged at 4° C. and 12,000 rpm for 10 minutes. The clear supernatant was transferred to a new 1.5 ml centrifuge tube, and 0.2 ml of chloroform was added. The tube was tightly capped, vigorously shaken for 15 seconds, and then incubated at room temperature for 2-3 minutes until the liquid separated into layers. After centrifuging at 4° C. and 12,000 rpm for 15 minutes, the transparent supernatant was carefully transferred to a new 1.5 ml centrifuge tube. Then, 0.5 ml of isopropanol was added, mixed well, and incubated at room temperature for 30 minutes. Following centrifugation at 4° C. and 12,000 rpm for 10 minutes, the supernatant was discarded. The precipitate was gently washed with 1 ml of 75% ethanol (to allow the white precipitate to float slightly), and then centrifuged at 4° C. and 7,500 rpm for 5 minutes. The supernatant was completely aspirated, and the RNA precipitate was briefly dried for 5-10 minutes. The precipitate was then dissolved in 20 μl of DEPC (Diethylpyrocarbonate)-treated water and stored in a −80° C. low-temperature freezer.
Treatment of Control Nucleic Acid: DEPC-H2O was used as a negative control. For the positive control, a series of four concentrations were prepared by gradient dilution at 10^7, 10^6, 10^5, and 10^4 copies/ml.
Reagent Preparation: Mix n×18 μl of RSV nucleic acid fluorescent PCR detection mixture, n×1 μl of internal control, and n×1 μl of RT-PCR enzyme (where n is the number of reaction tubes). Shake vigorously for a few seconds and centrifuge at 3000 rpm for a few seconds.
Sample Addition: Dispense 20 μl of the above mixture into each PCR tube. Then, add 5 μl of sample nucleic acid extract, DEPC-H2O, and positive control to the respective PCR tubes. Tightly close the tube caps, centrifuge for a few seconds to ensure all liquids are at the bottom, and immediately proceed with PCR amplification.
PCR Amplification: Place the reaction tubes in a quantitative fluorescent PCR instrument. Set the cycling parameters as follows: 45° C. for 10 minutes; 95° C. for 15 minutes; then 40 cycles of 95° C. for 15 seconds→60° C. for 60 seconds. Single-point fluorescent detection is performed at 60° C., with a reaction volume of 25 μl.
Fluorescent Channel Selection: Select the FAM and HEX/VIC/JOE channels for detection. […]

[2] = test system: Mycoplasma Pneumoniae (MP); assay: Pathological changes in lung tissue of MP-infected mice (HE staining); assay type: in vivo, BALB/C mice; set-up: Alveolitis Lesion Degree / Bronchial Damage / Histological Damage Degree: scale not given here
Description: Fifty BALB/C mice, weighing 14±1 g, were randomly divided into five groups: a normal control group, a model control group, an azithromycin control group, a high-dose Genipin-1-β-D-gentiobioside group (75 mg/ml) with 15-minute nebulization, and a low-dose Genipin-1-β-D-gentiobioside group (37.5 mg/ml) with 15-minute nebulization. Each group consisted of 10 mice, with an equal number of males and females. Except for the normal control group, all mice were lightly anesthetized with isoflurane and infected intranasally with Mycoplasma Pneumoniae (50 μl per mouse) for three consecutive days. On the day of infection, each treatment group received nebulized medication once daily for four consecutive days, while the normal control group and model control group received nebulized saline under the same conditions. On the fifth day, the mice were weighed, sacrificed by cervical dislocation, and their lung tissues were dissected, weighed, and used to calculate the lung index and lung index inhibition rate; measure the levels of inflammatory factors in the lung tissue; measure the serum CRP levels; and conduct pathological examinations of the lung tissue. The results were statistically analyzed using the t-test for intergroup comparisons.
2.4 Pathological Changes in Mouse Lung Tissue (HE Staining Method)

[3] = 37.5 mg/ml nebulization 25 min once daily 4 days
[4] = 75 mg/ml nebulization 25 min once daily 4 days
[5] = High-Dose Group (75 mg/ml nebulization 15 min)
[6] = Low-Dose Group (37.5 mg/ml nebulization 15 min)

COC(=O)C1=CO[C@@H](O[C@@H]2O[C@H](CO[C@@H]3O[C@H](CO)[C@@H](O)[C@H](O)[C@H]3O)[C@@H](O)[C@H](O)[C@H]2O)[C@@H]2C(CO)=CC[C@H]12 [Genipin-1-β-D-gentiobioside]
Inhibition Rate (viral load) [1, 3]: 57.54% and 57.43% | Viral Load in lung tissue [1, 3]: 22127.79 ± 30384.54 copies/ng | Inhibition Rate (viral load) [1, 4]: 56.08% | Viral Load in lung tissue [1, 4]: 22745.57 ± 13287.06 copies/ng | Alveolitis Lesion Degree [2, 5]: 30.40* | Bronchial Damage [2, 5]: 26.60* | Histological Damage Degree [2, 5]: 1.50 ± 0.55 | Interstitial Inflammatory Cell Infiltration [2, 5]: 30.60* | Pathological changes of lung tissue compared with the model group ([2]; High-Dose Group, HE staining): significantly reduced | Alveolitis Lesion Degree [2, 6]: 39.35 | Bronchial Damage [2, 6]: 52.35 | Histological Damage Degree [2, 6]: 1.90 ± 0.39 | Pathological changes (alveolar wall thickening, inflammatory cell infiltration) compared with the model group ([2]; Low-Dose Group, HE staining): significantly reduced
